Data: article PMC8568970 (Nature Communications, 2021)
Entries after “also recorded” stand apart in the source; their conditions may differ. Ends that are not written are not given here. * marks the point of attachment. Octanoyl = CCCCCCCC(=O)*

Key:
GHSR [1] = details: cited from earlier work
Source text: It mainly signals through the growth hormone secretagogue receptor (GHSR, or ghrelin receptor), a class A G protein-coupled receptor (GPCR). […] The GHSR and Gi signaling ...

wild type GHSR [2] = experiment: GTP turnover assay for Gi catalyzed by GHSR in nanodiscs; type: biochemical, human
Source text: (§1) Human GHSR was expressed in E. coli inclusion bodies, folded in amphipol A8-35, and then inserted into lipid nanodiscs formed with MSP1E3D1 and POPC:POPG (3:2 molar ratio) containing or not 10% cholesterol, as described in Damian et al.[54]. After insertion into nanodiscs, active receptor fractions were purified using affinity chromatography with the biotinylated version of the JMV2959 antagonist immobilized on a streptavidin column. GHSR containing disks were separated from aggregates and possible trace amounts of the ligand through a size-exclusion chromatography step on a Superdex 200 increase 10/300 GL column (GE Healthcare) using a 25 mM Na-HEPES, 150 mM NaCl, 0.5 mM EDTA, pH 7.5 buffer as the eluent. GTP turnover was assessed as described previously. All experiments were carried out at 15 °C. The receptor was first incubated with the isolated G protein and, when applicable, the ligand (10 µM) for 30 min in a 25 mM HEPES, 100 mM NaCl, 5 mM MgCl2, pH 7.5 buffer. GTP turnover was then started by adding GTP (5 µM) and GDP (10 µM), and the amount of remaining GTP was assessed after 10 min incubation at 15 °C using the GTPase-Glo assay (Promega). The signal was normalized in each case to that in the absence of receptor (100%).
Supplementary Figure 2. Potential cholesterol binding sites and effects of cholesterol in GHSR signaling. (a) Cryo-EM density maps of two cholesterol molecules modeled in the structure of ghrelin-GHSR-Gi.GHSR is colored in slate. Cholesterol molecules are shown as grey sticks. (b) GTP turnover for Gi catalyzed by wild type GHSR in nanodiscs containing 10% […]
normalized to that obtained for the G protein in the absence of receptor (Gi panels), and data is mean ± SD of five experiments. Statistical values were obtained by means of two-sided […]
loaded receptor, respectively). […]
the absence or presence of 10% cholesterol (molar ratio) into the lipid discs. Each data point represents mean ± SD of three experiments.
(1 picture or pasted object on this page, not shown here)

wild type GHSR [3] = experiment: HTRF competition between dy647-JMV2959 and ghrelin in lipid discs; type: binding, human
Source text: as §1
(§2) Competition ligand-binding assays were performed using the HTRF signal between GHSR labeled with Lumi-4 Tb and the JMV2959 antagonist labeled with dy647. Increasing concentrations in the competing compound were added to a receptor: antagonist mixture (100 nM concentration range). In all cases, the ligand: receptor mixtures were incubated for 30 min at 15 °C and the HTRF signal recorded using a Cary Eclipse spectrofluorimeter (Varian) with an excitation wavelength set at 337 nm and an emission wavelength at 665 and 620 nm. All binding data were analyzed using Prism 8.0.
Supplementary Figure 2. Potential cholesterol binding sites and effects of cholesterol in GHSR signaling. (a) Cryo-EM density maps of two cholesterol molecules modeled in the structure of ghrelin-GHSR-Gi.GHSR is colored in slate. Cholesterol molecules are shown as grey sticks. […]

GHSR mutants [4] = experiment: Calcium mobilization assay, GHSR mutants (results in words); type: cell-based, human
Description: (§3) Calcium mobilization assay to measure GHSR signaling was carried out in HEK-293T cells cultured in DMEM supplemented with 10% (vol/vol) FBS (Fisher Scientific). The cDNAs encoding human GHSR was cloned into the pcDNA3.1(+) vector (Invitrogen) with a FLAG peptide fused to the N terminus. Mutant variants were then generated by site-directed mutagenesis and all mutants were fully sequenced. Various GHSR constructs were transfected to HEK-293T cells using FuGENE Transfection Reagent (Promega). The surface expression of wtGHSR and various mutants in HEK-293T cells was determined and confirmed using FACS with a fluorescent FLAG M1 antibody (homemade).
(§4) To measure the agonist-induced calcium release, 50 μL dye loading buffer made of Hank’s Balanced Salt Solution (HBSS) with 5 μM Fluo-4 (Sigma), 0.2% pluronicacid, and 1% FBS was added to the GHSR-expressing cells and incubated for 1 h at 37 °C. Cells were then washed twice with HBSS buffer and left at room temperature in 50 μL HBBS. Fluo-4 fluorescence intensity (excitation 480 nm, emission 520 nm) was measured as an indicator of calcium release in a multimode reader (Spark 20 M, TECAN). […] The data were analyzed in GraphPad Prism 8 using the one site dose-response stimulation method. Results were presented as mean ± S.D. from three independent experiments.

GHSR mutants [5] = experiment: HTRF-monitored binding of labeled ghrelin, GHSR mutants (results in words); set-up: species or system human; details: Supplementary Fig. 3b
Description: as §2
GHSR mutants. (a) Surface expression levels of GHSR mutants tested in Figure 2. For each GHSR mutant, the expression level was determined by measuring the fluorescence intensity of transfected HEK-293 cells stained with a fluorescent anti-FLAG antibody that could bind to the N-terminal FLAG peptide of each GHSR construct. BG means background, representing results from non-transfected HEK-293 cells. Each column represents results shown as mean ± s.d. from 3 wells of cells transiently transfected with each GHSR mutant. (b) HTRF-monitored binding of […]
POPC:POPG lipid discs. The binding data are presented as variations in the HTRF ratio as a […]
Each data point represents mean ± SD of three […]
ibutamoren (yellow). The receptors are colored in slate and green, respectively. ECL2 and ECL3 show notable conformational differences. […]

GHSR mutants [6] = details: cited from earlier work
GHSR [7] = details: signaling through GHSR, under nutritional or physiological challenges; cited from earlier work
Source text: It mainly signals through the growth hormone secretagogue receptor (GHSR, or ghrelin receptor), a class A G protein-coupled receptor (GPCR). […] In addition, GHSR plays critical role in the mod ...

[8] = tested on: GHSR and Gi signaling pathway; details: cited from earlier work
Source text: The GHSR and Gi signaling ...

GHSR mutant R102A = experiment: Calcium mobilization assay, R102A; type: cell-based, human; details: Fig. 2f
Description: Ghrelin residues are labeled in orange. […] GHSR bound to ibutamoren is colored green. Ibutamoren is shown as yellow sticks. e Ibutamoren binding pocket. f Dose-dependent action of ibutamoren on wtGHSR and mutants. In c and f, agonist-induced GHSR signaling was measured by Ca^2+ mobilization assay. Each data point represents mean ± S.D. from three independent assays. Polar interactions are shown as dashed lines in (a, b, and e).
as §3, with “Mutant variants were then generated by site-directed mutagenesis and all mutants were fully sequenced. Various GHSR constructs were transfected to HEK-293T cells using FuGENE Transfection Reagent (Promega).” left out
as §4, with “Cells were then washed twice with HBSS buffer and left at room temperature in 50 μL HBBS.” left out, “Results were presented as mean ± S.D. from three independent experiments.” left out

[9] = reconstituted lipid nanodiscs, 10% cholesterol

Cc1cc(-c2ccc3c(c2)CC[C@H]3N2CC3(CCN(C(=O)Cc4cn5cc(C)sc5n4)CC3)C2)ncn1 [PF-5190457]
pharmacological character at GHSR (GHSR [1]): GHSR inverse agonist

CC(C)CCC[C@@H](C)[C@H]1CC[C@H]2[C@@H]3CC=C4C[C@@H](O)CC[C@]4(C)[C@H]3CC[C@]12C [cholesterol]
effect of cholesterol on GHSR-induced Gi activation (wild type GHSR [2]; 10% cholesterol (molar ratio), with and without 10 µM ghrelin, five experiments): subtle but significant positive effects | effect of cholesterol on basal activity (GTP turnover) (wild type GHSR [2]; no ligand, lower amplitude than in the presence of ghrelin): statistically significant effect | effect of cholesterol on activity of GHSR (wild type GHSR [2]; [9]): positively regulate | effect of cholesterol on affinity of GHSR for ghrelin (wild type GHSR [3]; 10% cholesterol, lipid discs (peer review file)): slightly increase the affinity of GHSR for ghrelin | effect of cholesterol on binding of ghrelin to GHSR (wild type GHSR [3]; [9]): positively regulate the binding of ghrelin to GHSR

Liver expressed antimicrobial peptide 2 (LEAP2): Liver expressed antimicrobial peptide 2, GHSR inverse agonist or antagonist (MTPFWRGVSLRPIGASCRDDSECITRLCRKRRCSLSVAQE; UniProt Q969E1 38-77, looked up)
pharmacological character at GHSR (GHSR [1]): GHSR inverse agonist or antagonist

ghrelin: 28-amino acid orexigenic peptide hormone; octanoylation at position-3 serine; endogenous GHSR agonist (Tocris) (GSS(Octanoyl)FLSPEHQRVQQRKESKKPPAKLQPR; UniProt Q9UBU3 24-51, looked up)
decrease of Kd value for ghrelin in the presence of cholesterol (wild type GHSR [3]; 10% cholesterol vs none, lipid discs): about 2 fold | EC50 of ghrelin in inducing GHSR signaling, effect of the four TM7 proline mutations (GHSR mutants [4]; I297P, A298P, Q299P, I300P vs wtGHSR, 3 independent assays): didn't significantly affect the EC50s of ghrelin | agonistic action of ghrelin, effect of proline mutations at the extracellular end of TM7 (GHSR mutants [4]; individual residues E297 to I300 to proline, Supplementary Fig. 4b): didn't significantly affect the agonistic action of ghrelin; also recorded: not critical for the agonistic action of ghrelin | GHSR signaling induced by ghrelin, effect of mutations of hydrophobic residues in cavity II (GHSR mutants [4]; mutations to larger or polar residues, Fig. 2c): compromised GHSR signaling induced by ghrelin | ghrelin binding, effect of salt bridge mutations (GHSR mutants [5]; E124 and R283 to alanine or glutamine): could almost abolish ghrelin binding | affinity of GHSR for ghrelin, effect of alanine mutations (GHSR mutants [5]; individual mutations I178, L181, F286 to alanine): decreased affinity of GHSR for ghrelin | potency of ghrelin in activating GHSR, effect of mutations F279, F312, W276 (GHSR mutants [6]; individual mutations in the aromatic cluster): significantly lowered the potency of ghrelin | potency of ghrelin, effect of mutations E124, R283, Q120 (GHSR mutants [6]; individual mutations to non-polar residues): decreased potency of ghrelin | growth hormone secretion and food intake (GHSR [7]): stimulates growth hormone secretion and food intake | glucose-induced insulin release [8]: attenuated glucose-induced insulin release

CC(C)(N)C(=O)N[C@H](COCc1ccccc1)C(=O)N1CCC2(CC1)CN(S(C)(=O)=O)c1ccccc12 [ibutamoren]
action of ibutamoren, effect of mutation of R102 (GHSR mutant R102A): compromised action of ibutamoren
